Experimental data: US10798939B2, “Cellulose binding domain chitosan seed coating” (priority 2015, dated 2020)

Test system: V. radiata
Conditions: AgNO3 0-2 mM bolus doses, day 4 to day 8
Method: For two days beans were allowed to germinate in the dark at 20° C. as described above. On day 3, the plate was incubated at 20° C./12 hr photoperiod and 100% humidity, and 500 μL of distilled water were added to each well. On day 5 another 750 μL of distilled water were added and the cover of the well plate was removed. The EC50 was determined as the concentration at which the change in mass of the seedling was half that of untreated V. radiata.

O=[N+]([O-])[O-].[Ag+] [AgNO3, silver nitrate]
change in mass of V. radiata: decreased significantly in a dose response fashion
